{"source": "PubChem BioAssay (NCI)", "assay_in_all_cases": "DTP human tumour cell line panel, 48 h", "key": {"[1]": {"system": "MCF7 breast"}, "[2]": {"system": "SK-MEL-2 melanoma"}, "[3]": {"system": "SK-MEL-28 melanoma"}, "[4]": {"system": "SK-MEL-5 melanoma"}, "[5]": {"system": "SK-OV-3 ovarian"}, "[6]": {"system": "SNB-19 CNS"}, "[7]": {"system": "SR leukemia"}, "[8]": {"system": "UACC-62 melanoma"}, "[9]": {"system": "UO-31 renal"}, "[10]": {"system": "LOX IMVI melanoma"}}, "note": "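Briefly, cells in 96-well plates were exposed to five compound concentrations for 48 h, and endpoints were estimated by linear interpolation. Here, GI50 denotes the concentration required for 50% inhibition of growth. Definition used: TGI = concentration required for complete inhibition of growth.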"}
{"smiles": "[Cu+2].[O-]c1ccc2ccccc2c1N=Nc1ccccc1.[O-]c1ccc2ccccc2c1N=Nc1ccccc1", "values": [{"measurement": "TGI", "setting": "[1]", "result": "> 100", "unit": "µM"}, {"measurement": "TGI", "setting": "[2]", "result": "> 100", "unit": "µM"}, {"measurement": "TGI", "setting": "[3]", "result": "> 100", "unit": "µM"}, {"measurement": "TGI", "setting": "[4]", "result": "> 100", "unit": "µM"}, {"measurement": "TGI", "setting": "[5]", "result": "> 100", "unit": "µM"}, {"measurement": "TGI", "setting": "[6]", "result": "> 100", "unit": "µM"}, {"measurement": "TGI", "setting": "[7]", "result": "> 100", "unit": "µM"}, {"measurement": "TGI", "setting": "[8]", "result": "> 100", "unit": "µM"}, {"measurement": "TGI", "setting": "[9]", "result": "> 100", "unit": "µM"}]}
{"smiles": "COc1cc(-c2[nH]ccc2Cl)oc1C1=C2N=C3C=C2C(C(C)C)C1CCCCCCCC3", "note": "(configuration not stated)", "values": [{"measurement": "TGI", "setting": "[10]", "result": 0.348, "unit": "µM"}, {"measurement": "TGI", "setting": "[2]", "result": 1.39, "unit": "µM"}, {"measurement": "TGI", "setting": "[3]", "result": 2.84, "unit": "µM"}, {"measurement": "TGI", "setting": "[4]", "result": 0.813, "unit": "µM"}, {"measurement": "TGI", "setting": "[5]", "result": 3.77, "unit": "µM"}, {"measurement": "TGI", "setting": "[6]", "result": 5.92, "unit": "µM"}, {"measurement": "TGI", "setting": "[7]", "result": 0.739, "unit": "µM"}, {"measurement": "TGI", "setting": "[8]", "result": 1.91, "unit": "µM"}, {"measurement": "TGI", "setting": "[9]", "result": 2.55, "unit": "µM"}]}
{"smiles": "CC(=O)OC12c3ccccc3C1CCCCCC21OCCCO1", "note": "(configuration not stated)", "values": [{"measurement": "TGI", "setting": "[10]", "result": "> 100", "unit": "µM"}, {"measurement": "TGI", "setting": "[2]", "result": "> 100", "unit": "µM"}, {"measurement": "TGI", "setting": "[3]", "result": "> 100", "unit": "µM"}, {"measurement": "TGI", "setting": "[4]", "result": "> 100", "unit": "µM"}, {"measurement": "TGI", "setting": "[5]", "result": "> 100", "unit": "µM"}, {"measurement": "TGI", "setting": "[6]", "result": "> 100", "unit": "µM"}, {"measurement": "TGI", "setting": "[7]", "result": "> 100", "unit": "µM"}, {"measurement": "TGI", "setting": "[8]", "result": "> 100", "unit": "µM"}, {"measurement": "TGI", "setting": "[9]", "result": "> 100", "unit": "µM"}]}
{"smiles": "Cc1ccc(C)c(NC(=O)c2cc(-c3ccc([N+](=O)[O-])cc3)nc(N)n2)c1", "values": [{"measurement": "TGI", "setting": "[10]", "result": "> 100", "unit": "µM"}, {"measurement": "TGI", "setting": "[2]", "result": "> 100", "unit": "µM"}, {"measurement": "TGI", "setting": "[3]", "result": "> 100", "unit": "µM"}, {"measurement": "TGI", "setting": "[4]", "result": "> 100", "unit": "µM"}, {"measurement": "TGI", "setting": "[5]", "result": "> 100", "unit": "µM"}, {"measurement": "TGI", "setting": "[6]", "result": "> 100", "unit": "µM"}, {"measurement": "TGI", "setting": "[7]", "result": "> 100", "unit": "µM"}, {"measurement": "TGI", "setting": "[8]", "result": "> 100", "unit": "µM"}, {"measurement": "TGI", "setting": "[9]", "result": "> 100", "unit": "µM"}]}
{"smiles": "CCOc1ccccc1/C=C1\\NC(=O)N(/C=C2\\C(=O)Oc3ccccc3C2=O)C1=O", "values": [{"measurement": "TGI", "setting": "[10]", "result": "> 100", "unit": "µM"}, {"measurement": "TGI", "setting": "[1]", "result": "> 100", "unit": "µM"}, {"measurement": "TGI", "setting": "[2]", "result": "> 100", "unit": "µM"}, {"measurement": "TGI", "setting": "[3]", "result": "> 100", "unit": "µM"}, {"measurement": "TGI", "setting": "[4]", "result": 57.9, "unit": "µM"}, {"measurement": "TGI", "setting": "[5]", "result": "> 100", "unit": "µM"}, {"measurement": "TGI", "setting": "[6]", "result": "> 100", "unit": "µM"}, {"measurement": "TGI", "setting": "[8]", "result": "> 100", "unit": "µM"}, {"measurement": "TGI", "setting": "[9]", "result": 75, "unit": "µM"}]}
{"smiles": "O=c1/c(=C/c2ccc(Cl)cc2Cl)sc2nc3ccccc3n12", "values": [{"measurement": "TGI", "setting": "[10]", "result": "> 100", "unit": "µM"}, {"measurement": "TGI", "setting": "[2]", "result": "> 100", "unit": "µM"}, {"measurement": "TGI", "setting": "[3]", "result": "> 100", "unit": "µM"}, {"measurement": "TGI", "setting": "[4]", "result": "> 100", "unit": "µM"}, {"measurement": "TGI", "setting": "[5]", "result": "> 100", "unit": "µM"}, {"measurement": "TGI", "setting": "[6]", "result": "> 100", "unit": "µM"}, {"measurement": "TGI", "setting": "[8]", "result": "> 100", "unit": "µM"}, {"measurement": "TGI", "setting": "[9]", "result": "> 100", "unit": "µM"}]}
{"smiles": "Brc1ccc([I+]c2ccc(Br)cc2)cc1", "values": [{"measurement": "GI50", "setting": "[10]", "result": 0.713, "unit": "µM"}, {"measurement": "TGI", "setting": "[10]", "result": 2.12, "unit": "µM"}, {"measurement": "GI50", "setting": "[1]", "result": 0.825, "unit": "µM"}, {"measurement": "TGI", "setting": "[1]", "result": 10.2, "unit": "µM"}, {"measurement": "GI50", "setting": "[2]", "result": 1.36, "unit": "µM"}, {"measurement": "TGI", "setting": "[2]", "result": 3.09, "unit": "µM"}, {"measurement": "GI50", "setting": "[3]", "result": 1.43, "unit": "µM"}, {"measurement": "TGI", "setting": "[3]", "result": 3.79, "unit": "µM"}, {"measurement": "GI50", "setting": "[4]", "result": 0.545, "unit": "µM"}, {"measurement": "TGI", "setting": "[4]", "result": 1.83, "unit": "µM"}, {"measurement": "GI50", "setting": "[5]", "result": 1.5, "unit": "µM"}, {"measurement": "TGI", "setting": "[5]", "result": 3.12, "unit": "µM"}, {"measurement": "GI50", "setting": "[6]", "result": 1.38, "unit": "µM"}, {"measurement": "TGI", "setting": "[6]", "result": 2.76, "unit": "µM"}, {"measurement": "GI50", "setting": "[8]", "result": 2.87, "unit": "µM"}, {"measurement": "TGI", "setting": "[8]", "result": 17.5, "unit": "µM"}, {"measurement": "GI50", "setting": "[9]", "result": 5.96, "unit": "µM"}, {"measurement": "TGI", "setting": "[9]", "result": 26.1, "unit": "µM"}]}
{"smiles": "Cn1c(CCC#N)nc2ccc(Br)cc2c1=O", "values": [{"measurement": "TGI", "setting": "[10]", "result": "> 100", "unit": "µM"}, {"measurement": "TGI", "setting": "[2]", "result": "> 100", "unit": "µM"}, {"measurement": "TGI", "setting": "[3]", "result": "> 100", "unit": "µM"}, {"measurement": "TGI", "setting": "[4]", "result": "> 100", "unit": "µM"}, {"measurement": "TGI", "setting": "[5]", "result": "> 100", "unit": "µM"}, {"measurement": "TGI", "setting": "[8]", "result": "> 100", "unit": "µM"}, {"measurement": "TGI", "setting": "[9]", "result": "> 100", "unit": "µM"}]}
{"smiles": "COc1ccc(C(c2ccc(C(C)C)cc(=O)c2O)c2c(O)cc3oc(-c4ccccc4)cc(=O)c3c2O)cc1", "note": "(configuration not stated)", "values": [{"measurement": "TGI", "setting": "[10]", "result": 47.7, "unit": "µM"}, {"measurement": "TGI", "setting": "[3]", "result": "> 100", "unit": "µM"}, {"measurement": "TGI", "setting": "[4]", "result": 29.4, "unit": "µM"}, {"measurement": "TGI", "setting": "[5]", "result": 55.4, "unit": "µM"}, {"measurement": "TGI", "setting": "[6]", "result": 16.7, "unit": "µM"}, {"measurement": "TGI", "setting": "[8]", "result": 42.9, "unit": "µM"}]}
{"smiles": "COc1ccc2c(c1)CC[C@@H]1[C@@H]2CC[C@@]2(C)[C@H]1CC1(CCCCC1)[C@@H]2O", "values": [{"measurement": "GI50", "setting": "[10]", "result": 7.28, "unit": "µM"}, {"measurement": "TGI", "setting": "[10]", "result": 20.9, "unit": "µM"}, {"measurement": "GI50", "setting": "[1]", "result": 18.4, "unit": "µM"}, {"measurement": "TGI", "setting": "[1]", "result": 37.5, "unit": "µM"}, {"measurement": "GI50", "setting": "[2]", "result": 20.4, "unit": "µM"}, {"measurement": "TGI", "setting": "[2]", "result": 41.6, "unit": "µM"}, {"measurement": "GI50", "setting": "[3]", "result": 14.9, "unit": "µM"}, {"measurement": "TGI", "setting": "[3]", "result": 29.5, "unit": "µM"}, {"measurement": "GI50", "setting": "[4]", "result": 8.06, "unit": "µM"}, {"measurement": "TGI", "setting": "[4]", "result": 20.4, "unit": "µM"}, {"measurement": "GI50", "setting": "[5]", "result": 21.6, "unit": "µM"}, {"measurement": "TGI", "setting": "[5]", "result": 41.3, "unit": "µM"}, {"measurement": "GI50", "setting": "[6]", "result": 18, "unit": "µM"}, {"measurement": "TGI", "setting": "[6]", "result": 40.7, "unit": "µM"}, {"measurement": "GI50", "setting": "[8]", "result": 16.4, "unit": "µM"}, {"measurement": "TGI", "setting": "[8]", "result": 31.6, "unit": "µM"}, {"measurement": "GI50", "setting": "[9]", "result": 16.8, "unit": "µM"}, {"measurement": "TGI", "setting": "[9]", "result": 47.2, "unit": "µM"}]}
